The values that follow come from patent publication EP3741750A1, “4-(1H-1,2,3-TRIAZOL-1-YL)PYRROLIDINE-2-CARBOXYLIC ACID DERIVATIVES HAVING ACTIVITY AGAINST PAIN” (ESTEVE PHARMACEUTICALS, S.A., priority 2019, dated 2020).

The term Ki denotes a dissociation constant, usually derived from enzyme kinetics or from competition with a known ligand.

Human α2δ-1 subunit of Cav2.2 calcium channel, sequence (P54289 25-1103): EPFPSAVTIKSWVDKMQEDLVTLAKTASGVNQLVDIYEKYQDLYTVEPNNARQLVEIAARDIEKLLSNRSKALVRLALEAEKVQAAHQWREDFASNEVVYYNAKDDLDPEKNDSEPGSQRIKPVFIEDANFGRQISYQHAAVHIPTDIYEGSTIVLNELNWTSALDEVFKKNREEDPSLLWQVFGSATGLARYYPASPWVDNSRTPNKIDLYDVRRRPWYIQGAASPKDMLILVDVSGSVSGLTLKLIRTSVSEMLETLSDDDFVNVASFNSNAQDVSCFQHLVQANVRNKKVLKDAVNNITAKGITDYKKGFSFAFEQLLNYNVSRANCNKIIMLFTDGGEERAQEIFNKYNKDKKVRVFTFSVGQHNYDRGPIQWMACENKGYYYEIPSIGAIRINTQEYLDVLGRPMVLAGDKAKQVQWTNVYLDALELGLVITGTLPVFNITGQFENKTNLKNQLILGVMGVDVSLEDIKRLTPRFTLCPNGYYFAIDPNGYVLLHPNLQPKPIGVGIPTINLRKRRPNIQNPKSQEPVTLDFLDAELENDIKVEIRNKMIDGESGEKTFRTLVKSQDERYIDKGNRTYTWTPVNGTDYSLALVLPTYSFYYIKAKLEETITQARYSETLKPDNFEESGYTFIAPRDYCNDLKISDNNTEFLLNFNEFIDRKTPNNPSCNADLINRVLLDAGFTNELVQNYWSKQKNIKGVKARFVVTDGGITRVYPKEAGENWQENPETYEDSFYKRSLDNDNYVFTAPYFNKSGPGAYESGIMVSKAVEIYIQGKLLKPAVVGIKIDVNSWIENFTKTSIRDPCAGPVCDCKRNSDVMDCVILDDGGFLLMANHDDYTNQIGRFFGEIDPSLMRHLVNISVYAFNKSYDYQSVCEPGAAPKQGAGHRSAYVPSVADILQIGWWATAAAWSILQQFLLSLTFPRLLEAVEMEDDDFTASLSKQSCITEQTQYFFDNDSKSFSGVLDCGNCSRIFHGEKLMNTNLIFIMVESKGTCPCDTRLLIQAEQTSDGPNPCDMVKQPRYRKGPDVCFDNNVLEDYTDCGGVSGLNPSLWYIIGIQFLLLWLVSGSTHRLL

The assay has as its target Human α2δ-1 subunit of Cav2.2 calcium channel (Homo sapiens, UniProt P54289). Description: Human α2δ-1 subunit of Cav2.2 calcium channel assay ([3H]-Gabapentin radioligand binding). The note with it: Human α2δ-1 enriched membranes, 15 nM [3H]-Gabapentin, 60 min at 27 °C. The method, then:
Human α2δ-1 subunit of Cav2.2 calcium channel assay
Human α2δ-1 enriched membranes (2.5 µg) were incubated with 15 nM of radiolabeled [3H]-Gabapentin in assay buffer containing Hepes-KOH 10mM, pH 7.4. NSB (non specific binding) was measured by adding 10 µM pregabalin. The binding of the tested compound was measured at either one concentration (% inhibition at 1 or 10 µM) or five different concentrations to determine affinity values (Ki). After 60 min incubation at 27 °C, binding reaction was terminated by filtering through Multiscreen GF/C (Millipore) presoaked in 0.5 % polyethyleneimine in Vacuum Manifold Station, followed by 3 washes with ice-cold filtration buffer containing 50 mM Tris-HCI, pH 7.4. Filter plates were dried at 60 °C for 1 h and 30 µL of scintillation cocktail were added to each well before radioactivity reading. Readings were performed in a Trilux 1450 Microbeta radioactive counter (Perkin Elmer).
With `O=C(O)[C@@H]1C[C@H](n2cc(-c3cccc(F)c3)nn2)CN1` [Example 1, (2S,4S)-4-(4-(3-Fluorophenyl)-1H-1,2,3-triazol-1-yl)pyrrolidine-2-carboxylic acid], the Ki is under 0.5 µM.

Take `O=C(O)[C@@H]1C[C@H](n2cc(-c3cccc(Cl)c3)nn2)CN1` [Example 2, (2S,4S)-4-(4-(3-chlorophenyl)-1H-1,2,3-triazol-1-yl)pyrrolidine-2-carboxylic acid]: the Ki is under 0.5 µM.

Regarding `COc1ccccc1-c1cn([C@@H]2CN[C@H](C(=O)O)C2)nn1` [Example 3, (2S,4S)-4-(4-(2-methoxyphenyl)-1H-1,2,3-triazol-1-yl)pyrrolidine-2-carboxylic acid], the Ki was at least 5 µM.

Consider `COc1cccc(-c2cn([C@@H]3CN[C@H](C(=O)O)C3)nn2)c1` [Example 4, (2S,4S)-4-(4-(3-methoxyphenyl)-1H-1,2,3-triazol-1-yl)pyrrolidine-2-carboxylic acid], for which the Ki was at least 5 µM.

In the case of `COc1ccc(-c2cn([C@@H]3CN[C@H](C(=O)O)C3)nn2)cc1` [Example 6, (2S,4S)-4-(4-(4-methoxyphenyl)-1H-1,2,3-triazol-1-yl)pyrrolidine-2-carboxylic acid], the Ki was at least 5 µM.

As to `O=C(O)[C@@H]1C[C@H](n2cc(-c3ccccc3)nn2)CN1` [Example 7, (2S,4S)-4-(4-phenyl-1H-1,2,3-triazol-1-yl)pyrrolidine-2-carboxylic acid], the Ki was in the range of 0.5 to 5 µM.

As for `Cc1cccc(-c2cn([C@@H]3CN[C@H](C(=O)O)C3)nn2)c1` [Example 8, (2S,4S)-4-(4-(m-tolyl)-1H-1,2,3-triazol-1-yl)pyrrolidine-2-carboxylic acid], the Ki is at least 5 µM.

In the case of `O=C(O)[C@@H]1C[C@H](n2cc(-c3ccccn3)nn2)CN1` [Example 9, (2S,4S)-4-(4-(pyridin-2-yl)-1H-1,2,3-triazol-1-yl)pyrrolidine-2-carboxylic acid], the Ki lay within 0.5 to 5 µM.

On to `O=C(O)[C@@H]1C[C@H](n2cc(-c3ccc(F)c(F)c3)nn2)CN1` [Example 10, (2S,4S)-4-(4-(3,4-difluorophenyl)-1H-1,2,3-triazol-1-yl)pyrrolidine-2-carboxylic acid], for which the Ki is under 0.5 µM.

As to `COc1ccc(-c2cn([C@@H]3CN[C@H](C(=O)O)C3)nn2)c(Cl)c1` [Example 11, (2S,4S)-4-(4-(2-chloro-4-methoxyphenyl)-1H-1,2,3-triazol-1-yl)pyrrolidine-2-carboxylic acid], the inhibition constant (Ki) was at least 5 µM.

Regarding `O=C(O)[C@@H]1C[C@H](n2cc(-c3ccccc3Cl)nn2)CN1` [Example 12, (2S,4S)-4-(4-(2-chlorophenyl)-1 H-1,2,3-triazol-1-yl)pyrrolidine-2-carboxylic acid], the Ki was 0.5 to 5 µM.

Turning to `O=C(O)[C@@H]1C[C@H](n2cc(-c3ccc(Cl)cc3Cl)nn2)CN1` [Example 13, (2S,4S)-4-(4-(2,4-dichlorophenyl)-1H-1,2,3-triazol-1-yl)pyrrolidine-2-carboxylic acid], the Ki is at least 5 µM.

In the case of `O=C(O)[C@@H]1C[C@H](n2cc(-c3ccc(Cl)c(Cl)c3)nn2)CN1` [Example 14, (2S,4S)-4-(4-(3,4-dichlorophenyl)-1H-1,2,3-triazol-1-yl)pyrrolidine-2-carboxylic acid], the Ki is 0.5 to 5 µM.

As to `O=C(O)[C@@H]1C[C@H](n2cc(-c3cc(F)cc(F)c3)nn2)CN1` [Example 15, (2S,4S)-4-(4-(3,5-difluorophenyl)-1H-1,2,3-triazol-1-yl)pyrrolidine-2-carboxylic acid], the inhibition constant (Ki) was at least 5 µM.

Take `O=C(O)[C@@H]1C[C@H](n2cc(Cc3ccccc3)nn2)CN1` [Example 16, (2S,4S)-4-(4-benzyl-1H-1,2,3-triazol-1-yl)pyrrolidine-2-carboxylic acid]: the Ki is at least 5 µM.

For the molecule `O=C(O)[C@@H]1C[C@H](n2cc(-c3ccc(Br)cc3)nn2)CN1` [Example 17, (2S,4S)-4-(4-(4-bromophenyl)-1 H-1,2,3-triazol-1-yl)pyrrolidine-2-carboxylic acid], the Ki lay in the range of 0.5 to 5 µM.

For the molecule `O=C(O)[C@@H]1C[C@H](n2cc(-c3cccnc3)nn2)CN1` [Example 18, (2S,4S)-4-(4-(pyridin-3-yl)-1H-1,2,3-triazol-1-yl)pyrrolidine-2-carboxylic acid], the Ki was at least 5 µM.

As for `O=C(O)[C@@H]1C[C@H](n2cc(-c3ccncc3)nn2)CN1` [Example 19, (2S,4S)-4-(4-(pyridin-4-yl)-1H-1,2,3-triazol-1-yl)pyrrolidine-2-carboxylic acid], the Ki is at least 5 µM.

On to `O=C(O)[C@@H]1C[C@H](n2cc(-c3cncc(Cl)c3)nn2)CN1` [Example 20, (2S,4S)-4-(4-(5-chloropyridin-3-yl)-1H-1,2,3-triazol-1-yl)pyrrolidine-2-carboxylic acid], for which the Ki was at least 5 µM.

For `N#Cc1cccc(-c2cn([C@@H]3CN[C@H](C(=O)O)C3)nn2)c1` [Example 21, (2S,4S)-4-(4-(3-cyanophenyl)-1H-1,2,3-triazol-1-yl)pyrrolidine-2-carboxylic acid], the Ki was at least 5 µM.

On to `N#Cc1ccc(-c2cn([C@@H]3CN[C@H](C(=O)O)C3)nn2)cc1` [Example 22, (2S,4S)-4-(4-(4-cyanophenyl)-1H-1,2,3-triazol-1-yl)pyrrolidine-2-carboxylic acid], for which the Ki was at least 5 µM.

With `O=C(O)[C@@H]1C[C@H](n2cc(Cc3cccc(Cl)c3)nn2)CN1` [Example 23, (2S,4S)-4-(4-(3-chlorobenzyl)-1 H-1,2,3-triazol-1-yl)pyrrolidine-2-carboxylic acid], the Ki is at least 5 µM.

Take `O=C(O)[C@@H]1C[C@H](n2cc(-c3cccc(Br)c3)nn2)CN1` [Example 24, (2S,4S)-4-(4-(3-bromophenyl)-1 H-1,2,3-triazol-1-yl)pyrrolidine-2-carboxylic acid]: the Ki lay within 0.5 to 5 µM.

Regarding `CN(C)Cc1cc(F)cc(-c2cn([C@@H]3CN[C@H](C(=O)O)C3)nn2)c1` [Example 25, (2S,4S)-4-(4-(3-((dimethylamino)methyl)-5-fluorophenyl)-1 H-1,2,3-triazol-1-yl)pyrrolidine-2-carboxylic acid], the inhibitory constant (Ki) is at least 5 µM.

As to `CNCc1cc(F)cc(-c2cn([C@@H]3CN[C@H](C(=O)O)C3)nn2)c1` [Example 26, (2S,4S)-4-(4-(3-fluoro-5-((methylamino)methyl)phenyl)-1H-1,2,3-triazol-1-yl)pyrrolidine-2-carboxylic acid], the Ki is at least 5 µM.

With `O=C(O)[C@@H]1C[C@H](n2cc(-c3cc(Cl)cc(Cl)c3)nn2)CN1` [Example 27, (2S,4S)-4-(4-(3,5-dichlorophenyl)-1H-1,2,3-triazol-1-yl)pyrrolidine-2-carboxylic acid], the Ki is at least 5 µM.

Take `CN(Cc1ccccc1)Cc1cc(F)cc(-c2cn([C@@H]3CN[C@H](C(=O)O)C3)nn2)c1` [Example 28, (2S,4S)-4-(4-(3-((benzyl(methyl)amino)methyl)-5-fluorophenyl)-1H-1,2,3-triazol-1-yl)pyrrolidine-2-carboxylic acid]: the inhibition constant (Ki) was at least 5 µM.

Regarding `O=C(O)[C@@H]1C[C@H](n2cc(Cc3ccc(Cl)cc3)nn2)CN1` [Example 30, (2S,4S)-4-(4-(4-chlorobenzyl)-1 H-1,2,3-triazol-1-yl)pyrrolidine-2-carboxylic acid], the Ki is at least 5 µM.

For the molecule “(2S,4S)-4-(4-(3-((benzylamino)methyl)-5-fluorophenyl)-1H-1,2,3-triazol-1-yl)pyrrolidine-2-carboxylic acid [Example 29]”, the Ki is at least 5 µM.

In the case of “(2S,4S)-4-(4-(4-fluorophenyl)-1 H-1,2,3-triazol-1-yl)pyrrolidine-2-carboxylic acid [Example 5]”, the Ki was in the range of 0.5 to 5 µM.
